Like-named read-outs stand apart in the source and are kept apart here.
What was measured:
full length mouse TREX1 = target: T1, full length mouse TREX1 (Mus musculus, UniProt Q91XB0); assay: mTREX1 Biochemical Assay (fluorescence, dsDNA substrate degradation)
T1 construct: N-terminally His-Tev tagged full length mouse TREX1; made in house; host or cells: E. coli
T1 sequence (Q91XB0 1-314): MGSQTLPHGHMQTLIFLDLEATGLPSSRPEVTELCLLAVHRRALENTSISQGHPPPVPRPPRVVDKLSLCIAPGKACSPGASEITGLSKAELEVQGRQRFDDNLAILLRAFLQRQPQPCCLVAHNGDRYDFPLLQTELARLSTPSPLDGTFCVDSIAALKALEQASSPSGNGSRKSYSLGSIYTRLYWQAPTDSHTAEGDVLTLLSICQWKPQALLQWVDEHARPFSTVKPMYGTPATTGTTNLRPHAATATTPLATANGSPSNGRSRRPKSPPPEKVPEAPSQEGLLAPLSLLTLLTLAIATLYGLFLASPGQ
In short: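 Reaction run 18 h at 25° C. with 60 nM TEX615/quencher-labelled dsDNA and 6 pM mouse TREX1 in Tris buffer (pH 7.4, 5 mM MgCl2, 1.0% DMSO), enzyme having sat 4 h with compound across 10 concentrations. EDTA quench; substrate degradation measured as fluorescence increase.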

full length human TREX1 = target: T2, full length human TREX1 (Homo sapiens, UniProt Q9NSU2); assay: hTREX1 Biochemical Assay (fluorescence, dsDNA substrate degradation)
T2 construct: N-terminally His-Tev tagged full length human TREX1; made in house; host or cells: E. coli
T2 sequence (Q9NSU2 1-314): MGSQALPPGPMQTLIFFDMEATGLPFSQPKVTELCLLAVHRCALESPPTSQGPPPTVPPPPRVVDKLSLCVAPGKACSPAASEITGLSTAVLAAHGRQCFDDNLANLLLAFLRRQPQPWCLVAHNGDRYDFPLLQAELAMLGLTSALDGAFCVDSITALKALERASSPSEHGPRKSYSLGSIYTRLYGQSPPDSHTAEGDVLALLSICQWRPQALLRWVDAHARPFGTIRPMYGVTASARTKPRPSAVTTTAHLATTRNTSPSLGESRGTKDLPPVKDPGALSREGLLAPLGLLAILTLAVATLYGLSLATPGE
In short: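 Fluorescence rises as enzyme degrades a quenched TEX615-labelled dsDNA substrate (60 nM) in 50 mM Tris, 150 mM NaCl, 5 mM MgCl2, pH 7.4. Full-length His-Tev-tagged human TREX1, 4 pM, sits with compound 4 hours at 25° C before substrate; reaction 18 hours, stopped with EDTA.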

[1] = target: T3, human TREX2 (residues M44-A279) (Homo sapiens, UniProt Q9BQ50); assay: hTREX2 Biochemical Assay (fluorescence, dsDNA substrate degradation); details: biochemical selectivity for hTREX1 vs hTREX2
T3 construct: human TREX2 (residues M44-A279, expressed in E. coli); made in house; host or cells: E. coli
T3 sequence (Q9BQ50 44-279 isoform Q9BQ50-1): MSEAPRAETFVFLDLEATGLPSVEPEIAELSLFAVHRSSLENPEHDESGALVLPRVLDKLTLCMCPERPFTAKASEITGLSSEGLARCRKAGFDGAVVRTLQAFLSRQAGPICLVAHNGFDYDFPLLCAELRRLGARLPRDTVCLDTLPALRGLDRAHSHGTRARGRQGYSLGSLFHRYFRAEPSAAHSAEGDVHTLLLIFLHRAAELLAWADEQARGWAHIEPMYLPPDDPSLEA
Description: Degradation of the dsDNA liberates free fluorophore to produce a fluorescent signal. Specifically, 7.5 μL of N-terminally His-Tev tagged human TREX2 (residues M44-A279, expressed in E. coli and purified in house) in reaction buffer (50 mM Tris, 150 mM NaCl, 2 mM DTT, 0.1 mg/mL BSA, 0.01% (w/v) Tween-20, 5 mM MgCl2, pH 7.4) was added to a 384-well Black ProxiPlate Plus (PerkinElmer) which already contained compound (150 nL) at varying concentrations as a 10 point dose-response in DMSO. The plate was incubated at 25° C. for 4 hours. Reactions were initiated by adding 7.5 μL of dsDNA substrate (Strand A: 5′ TEX615/GCT AGG CAG 3′; Strand B: 5′ CTG CCT AGC/IAbRQSp (IDT)) in reaction buffer. Final concentrations were 50 pM TREX2, 60 nM dsDNA substrate in reaction buffer with 1.0% DMSO (v/v). After 18 hours at 25° C., reactions were quenched by the addition of 2 μL of 500 mM EDTA. Final concentrations in the quenched reaction mixture were 44 pM TREX2, 53 nM DNA and 59 mM EDTA in a volume of 17 μL. After a 5-minute incubation at room temperature, plates were read in an EnVision plate reader (PerkinElmer) measuring fluorescence at 615 nm following excitation w/570 nm light.

[2] = biochemical, read-out: mTREX1 IC50
[3] = biochemical, read-out: hTREX1 IC50

Row | Compound | IC50 (full length mouse TREX1; [2]) [nM] | IC50 (full length human TREX1; [3]) [nM] | hTREX1 vs hTREX2 selectivity [1] | IC50 (full length mouse TREX1; mTREX1 IC50, biochemical) [nM] | IC50 (full length human TREX1; hTREX1 IC50, biochemical) [nM]
1 | CC(c1nc(C(=O)Nc2cnoc2)c(O)c(=O)n1C)C(c1cnn(C(C)C)c1)c1ccccc1C#N (single isomer, unassigned) [Example 105 D1E1] | > 10 | > 10 | A (A = <25 fold selective for hTREX1) | – | –
2 | CCn1cc(C(c2ccccc2Cl)C(C)c2nc(C(=O)Nc3cnoc3)c(O)c(=O)n2C)cn1 (single isomer, unassigned) [Example 85 D2E2] | > 10 | > 10 | A (A = <25 fold selective for hTREX1) | – | –
3 | Cc1nc(C)c(C(c2ccccc2C#N)C(C)c2nc(C(=O)Nc3cnoc3)c(O)c(=O)n2C)nc1C (single isomer, unassigned) [Example 122 D1E2] | > 10 | > 10 | B (B = 25 to 50-fold selective for hTREX1) | – | –
4 | CCc1cnn(C(c2ccccc2Cl)C(C)c2nc(C(=O)Nc3cnoc3)c(O)c(=O)n2C)c1 (single isomer, unassigned) [Example 134 D1E2] | > 10 | > 10 | A (A = <25 fold selective for hTREX1) | – | –
5 | CC(c1nc(C(=O)Nc2cnoc2)c(O)c(=O)n1C)C(c1cnn(CC2COC2)c1)c1cc(F)ccc1Cl (single isomer, unassigned) [Example 94 D1E2] | > 10 | > 10 | A (A = <25 fold selective for hTREX1) | – | –
6 | CC(=O)N(C)c1nn(C)cc1C(c1ccccc1C#N)C(C)c1nc(C(=O)Nc2cnoc2)c(O)c(=O)n1C (single isomer, unassigned) [Example 153 D1E1] | > 10 | > 10 | – | – | –
7 | Cc1nn(C)cc1C(c1ccccc1C#N)C(c1nc(C(=O)Nc2cnoc2)c(O)c(=O)n1C)C(F)(F)F (single isomer, unassigned) [Example 41 D2E2] | > 10 | > 10 | – | – | –
8 | CC(c1nc(C(=O)Nc2cnoc2)c(O)c(=O)n1C)C(c1cnn(C)c1)c1cc(F)ccc1C#N (single isomer, unassigned) [Example 14 D1E1] | > 10 | > 10 | – | – | –
9 | CC(c1nc(C(=O)Nc2cnoc2)c(O)c(=O)n1C)C(c1cnn(C)c1)c1cc(F)ccc1Cl (single isomer, unassigned) [Example 61 D2E1] | > 10 | > 10 | – | – | –
10 | CCn1cc(C(c2cc(F)c(F)cc2Cl)C(C)c2nc(C(=O)Nc3cnoc3)c(O)c(=O)n2C)cn1 (single isomer, unassigned) [Example 72 D1E1] | 1 to 10 | < 1 | – | – | –
11 | Cc1cc(C(c2ccccc2C#N)C(C)c2nc(C(=O)Nc3cnoc3)c(O)c(=O)n2C)ccn1 (single isomer, unassigned) [Example 6 D2E1] | > 10 | > 10 | – | – | –
12 | COCCn1cc(C(c2cc(F)ccc2C#N)C(C)c2nc(C(=O)Nc3cnoc3)c(O)c(=O)n2C)cn1 (single isomer, unassigned) [Example 18 D2E1] | > 10 | > 10 | – | – | –
13 | CCn1cc(C(c2cc(F)ccc2C#N)C(C)c2nc(C(=O)Nc3cnoc3)c(O)c(=O)n2C)cn1 (single isomer, unassigned) [Example 17 D1E1] | > 10 | > 10 | – | – | –
14 | CC(c1nc(C(=O)Nc2cnoc2)c(O)c(=O)n1C)C(c1cnccn1)c1ccccc1C#N (single isomer, unassigned) [Example 66 D1E2] | > 10 | 1 to 10 | – | – | –
15 | CC(c1nc(C(=O)Nc2cnoc2)c(O)c(=O)n1C)C(c1ccccc1C#N)c1nnnn1C (single isomer, unassigned) [Example 131 D2E2] | > 10 | > 10 | – | – | –
16 | CC(c1nc(C(=O)Nc2cnoc2)c(O)c(=O)n1C)C(c1cnn(C)c1)c1ccc(F)cc1C#N (single isomer, unassigned) [Example 15 D2E2] | > 10 | > 10 | – | – | –

Row | Compound | IC50 (full length mouse TREX1; [2]) [nM] | IC50 (full length human TREX1; [3]) [nM] | hTREX1 vs hTREX2 selectivity [1] | IC50 (full length mouse TREX1; mTREX1 IC50, biochemical) [nM] | IC50 (full length human TREX1; hTREX1 IC50, biochemical) [nM]
17 | CC(c1nc(C(=O)Nc2cnoc2)c(O)c(=O)n1C)C(c1ccccc1C#N)c1c(C#N)cnn1C (single isomer, unassigned) [Example 52 D2E2] | > 10 | > 10 | – | – | –
18 | CC(c1nc(C(=O)Nc2cnoc2)c(O)c(=O)n1C)C(c1cnn(CCN2CCOCC2)c1)c1ccccc1C#N (single isomer, unassigned) [Example 20 D1E2] | > 10 | > 10 | – | – | –
19 | CC(c1nc(C(=O)Nc2cnoc2)c(O)c(=O)n1C)C(c1cnn(C2COC2)c1)c1ccccc1C#N (single isomer, unassigned) [Example 106 D2E2] | > 10 | > 10 | – | – | –
20 | Cc1nn(C)cc1C(c1cc(F)ccc1C#N)C(c1nc(C(=O)Nc2cnoc2)c(O)c(=O)n1C)C(F)(F)F (single isomer, unassigned) [Example 42 D1E1] | > 10 | > 10 | – | – | –
21 | CCn1cc(C(c2cc(F)ccc2C#N)C(C)c2nc(C(=O)Nc3cnoc3)c(O)c(=O)n2C)cn1 (single isomer, unassigned) [Example 17 D2E2] | > 10 | > 10 | – | – | –
22 | CC(c1nc(C(=O)Nc2cnoc2)c(O)c(=O)n1C)C(c1cnn(C)c1)c1ccncc1C#N (single isomer, unassigned) [Example 8 D1E1] | > 10 | > 10 | – | – | –
23 | Cc1cnc(C(c2ccccc2Cl)C(C)c2nc(C(=O)Nc3cnoc3)c(O)c(=O)n2C)cn1 (single isomer, unassigned) [Example 116 D2E2] | > 10 | > 10 | – | – | –
24 | CC(c1nc(C(=O)Nc2cnoc2)c(O)c(=O)n1C)C(c1cnn(CCN2CCN(C)CC2)c1)c1ccccc1C#N (single isomer, unassigned) [Example 32 D1E2] | > 10 | 1 to 10 | – | – | –
25 | CC(c1nc(C(=O)Nc2cnoc2)c(O)c(=O)n1C)C(c1cnn(CCN2CCOCC2)c1)c1ccccc1C#N (single isomer, unassigned) [Example 20 D2E2] | > 10 | > 10 | – | – | –
26 | COCCn1cc(C(c2ccccc2C#N)C(C)c2nc(C(=O)Nc3cnoc3)c(O)c(=O)n2C)cn1 (single isomer, unassigned) [Example 9 D2E2] | > 10 | > 10 | – | – | –
27 | CCn1cc(C(c2ccc(F)cc2C#N)C(C)c2nc(C(=O)Nc3cnoc3)c(O)c(=O)n2C)c(C)n1 (single isomer, unassigned) [Example 55 D1E2] | > 10 | > 10 | – | – | –
28 | CC(c1nc(C(=O)Nc2cnoc2)c(O)c(=O)n1C)C(c1cnn(C(F)(F)F)c1)c1ccccc1C#N (single isomer, unassigned) [Example 151 D2E2] | > 10 | > 10 | – | – | –
29 | Cc1ccnn1C(c1ccccc1Cl)C(C)c1nc(C(=O)Nc2cnoc2)c(O)c(=O)n1C (single isomer, unassigned) [Example 54 D1E2] | – | – | – | > 10 | > 10
30 | CCn1ncc(C(c2ccccc2C#N)C(C)c2nc(C(=O)Nc3cnoc3)c(O)c(=O)n2C)c1C (single isomer, unassigned) [Example 68 D2E2] | > 10 | > 10 | – | – | –
31 | COCCn1cc(C(c2ccccc2C#N)C(C)c2nc(C(=O)Nc3cnoc3)c(O)c(=O)n2C)c(C)n1 (single isomer, unassigned) [Example 71 D1E2] | > 10 | > 10 | – | – | –

— US20240246946A1, “MODULATORS OF TREX1” (Constellation Pharmaceuticals, Inc., priority 2021, published 2024)
